According to PubChem BioAssay (NCI):
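Compound exposure: 48 hours, 5 concentrations, 96-well plates. At the GI50, growth is halved. At the TGI there is no net growth.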

Assays:
Test in all cases: growth of human tumour cells (NCI), 48 h
786-0 renal = tested on: 786-0 renal
A498 renal = tested on: A498 renal
A549 NSCLC = tested on: A549 NSCLC
ACHN renal = tested on: ACHN renal
BT-549 breast = tested on: BT-549 breast
CAKI-1 renal = tested on: CAKI-1 renal
CCRF-CEM leukemia = tested on: CCRF-CEM leukemia
COLO 205 colon = tested on: COLO 205 colon
DU-145 prostate = tested on: DU-145 prostate
HCC-2998 colon = tested on: HCC-2998 colon
HCT-116 colon = tested on: HCT-116 colon
HCT-15 colon = tested on: HCT-15 colon
HL-60(TB) leukemia = tested on: HL-60(TB) leukemia
HOP-62 NSCLC = tested on: HOP-62 NSCLC
HOP-92 NSCLC = tested on: HOP-92 NSCLC
HS 578T breast = tested on: HS 578T breast
HT29 colon = tested on: HT29 colon
IGROV1 ovarian = tested on: IGROV1 ovarian
K-562 leukemia = tested on: K-562 leukemia
KM12 colon = tested on: KM12 colon
LOX IMVI melanoma = tested on: LOX IMVI melanoma
M14 melanoma = tested on: M14 melanoma
MALME-3M melanoma = tested on: MALME-3M melanoma
MCF7 breast = tested on: MCF7 breast
MDA-MB-231 breast = tested on: MDA-MB-231 breast
MDA-MB-435 = tested on: MDA-MB-435
MOLT-4 leukemia = tested on: MOLT-4 leukemia
NCI-H226 lung = tested on: NCI-H226 lung
NCI-H23 lung = tested on: NCI-H23 lung
NCI-H460 lung = tested on: NCI-H460 lung
NCI-H522 lung = tested on: NCI-H522 lung
NCI/ADR-RES ovarian = tested on: NCI/ADR-RES ovarian
OVCAR-3 ovarian = tested on: OVCAR-3 ovarian
OVCAR-4 ovarian = tested on: OVCAR-4 ovarian
OVCAR-5 ovarian = tested on: OVCAR-5 ovarian
OVCAR-8 ovarian = tested on: OVCAR-8 ovarian
PC-3 prostate = tested on: PC-3 prostate
RPMI-8226 leukemia = tested on: RPMI-8226 leukemia
RXF 393 renal = tested on: RXF 393 renal
SF-268 CNS = tested on: SF-268 CNS
SF-295 CNS = tested on: SF-295 CNS
SF-539 CNS = tested on: SF-539 CNS
SK-MEL-2 melanoma = tested on: SK-MEL-2 melanoma
SK-MEL-28 melanoma = tested on: SK-MEL-28 melanoma
SK-MEL-5 melanoma = tested on: SK-MEL-5 melanoma
SK-OV-3 ovarian = tested on: SK-OV-3 ovarian
SN12C renal = tested on: SN12C renal
SNB-19 CNS = tested on: SNB-19 CNS
SNB-75 CNS = tested on: SNB-75 CNS
SR leukemia = tested on: SR leukemia
SW-620 colon = tested on: SW-620 colon
T-47D breast = tested on: T-47D breast
TK-10 renal = tested on: TK-10 renal
U251 CNS = tested on: U251 CNS
UACC-257 melanoma = tested on: UACC-257 melanoma
UACC-62 melanoma = tested on: UACC-62 melanoma
UO-31 renal = tested on: UO-31 renal

Q: What does the source list for `O=C1NC(=NCc2cccs2)SC1Cc1ccc2ncccc2c1` (centres undefined)?
A: GI50 (786-0 renal): > 24.1 µM; TGI (786-0 renal): > 25 µM; GI50 (A498 renal): 13.1 µM; TGI (A498 renal): > 25 µM; GI50 (A549 NSCLC): 18.5 µM; TGI (A549 NSCLC): > 25 µM; GI50 (ACHN renal): 24.7 µM; TGI (ACHN renal): > 25 µM; GI50 (BT-549 breast): 20.5 µM; TGI (BT-549 breast): > 25 µM; GI50 (CAKI-1 renal): 19.5 µM; TGI (CAKI-1 renal): > 25 µM; GI50 (CCRF-CEM leukemia): 11.7 µM; TGI (CCRF-CEM leukemia): > 25 µM; GI50 (COLO 205 colon): 10.2 µM; TGI (COLO 205 colon): > 25 µM; GI50 (DU-145 prostate): > 25 µM; TGI (DU-145 prostate): > 25 µM; GI50 (HCC-2998 colon): > 25 µM; TGI (HCC-2998 colon): > 25 µM; GI50 (HCT-116 colon): 10.7 µM; TGI (HCT-116 colon): > 25 µM; GI50 (HCT-15 colon): 11.4 µM; TGI (HCT-15 colon): > 25 µM; GI50 (HL-60(TB) leukemia): 11.8 µM; TGI (HL-60(TB) leukemia): > 25 µM; GI50 (HOP-62 NSCLC): 20.1 µM; TGI (HOP-62 NSCLC): > 25 µM; GI50 (HOP-92 NSCLC): 10.3 µM; TGI (HOP-92 NSCLC): > 25 µM; GI50 (HS 578T breast): 9.87 µM; TGI (HS 578T breast): > 25 µM; GI50 (HT29 colon): 11.7 µM; TGI (HT29 colon): > 25 µM; GI50 (IGROV1 ovarian): > 16.5 µM; TGI (IGROV1 ovarian): > 25 µM; GI50 (K-562 leukemia): 17.3 µM; TGI (K-562 leukemia): > 25 µM; GI50 (KM12 colon): 15.6 µM; TGI (KM12 colon): > 25 µM; GI50 (LOX IMVI melanoma): 19.2 µM; TGI (LOX IMVI melanoma): > 25 µM; GI50 (M14 melanoma): 11 µM; TGI (M14 melanoma): > 25 µM; GI50 (MALME-3M melanoma): 24.7 µM; TGI (MALME-3M melanoma): > 25 µM; GI50 (MCF7 breast): 8.79 µM; TGI (MCF7 breast): > 25 µM; GI50 (MDA-MB-231 breast): > 25 µM; TGI (MDA-MB-231 breast): > 25 µM; GI50 (MDA-MB-435): 7.21 µM; TGI (MDA-MB-435): > 25 µM; GI50 (MOLT-4 leukemia): 14.5 µM; TGI (MOLT-4 leukemia): > 25 µM; GI50 (NCI-H226 lung): > 25 µM; TGI (NCI-H226 lung): > 25 µM; GI50 (NCI-H23 lung): > 25 µM; TGI (NCI-H23 lung): > 25 µM; GI50 (NCI-H460 lung): 11.8 µM; TGI (NCI-H460 lung): > 25 µM; GI50 (NCI-H522 lung): 16.1 µM; TGI (NCI-H522 lung): > 25 µM; GI50 (NCI/ADR-RES ovarian): > 25 µM; TGI (NCI/ADR-RES ovarian): > 25 µM; GI50 (OVCAR-3 ovarian): 13 µM; TGI (OVCAR-3 ovarian): > 25 µM; GI50 (OVCAR-4 ovarian): > 25 µM; TGI (OVCAR-4 ovarian): > 25 µM; GI50 (OVCAR-5 ovarian): > 25 µM; TGI (OVCAR-5 ovarian): > 25 µM; GI50 (OVCAR-8 ovarian): > 25 µM; TGI (OVCAR-8 ovarian): > 25 µM; GI50 (PC-3 prostate): 15.6 µM; TGI (PC-3 prostate): > 25 µM; GI50 (RPMI-8226 leukemia): 16.9 µM; TGI (RPMI-8226 leukemia): > 25 µM; GI50 (RXF 393 renal): > 19.3 µM; TGI (RXF 393 renal): > 25 µM; GI50 (SF-268 CNS): > 23 µM; TGI (SF-268 CNS): > 25 µM; GI50 (SF-295 CNS): 11.6 µM; TGI (SF-295 CNS): > 25 µM; GI50 (SF-539 CNS): 10.3 µM; TGI (SF-539 CNS): > 25 µM; GI50 (SK-MEL-2 melanoma): > 25 µM; TGI (SK-MEL-2 melanoma): > 25 µM; GI50 (SK-MEL-28 melanoma): > 19.9 µM; TGI (SK-MEL-28 melanoma): > 25 µM; GI50 (SK-MEL-5 melanoma): 17.4 µM; TGI (SK-MEL-5 melanoma): > 25 µM; GI50 (SK-OV-3 ovarian): > 25 µM; TGI (SK-OV-3 ovarian): > 25 µM; GI50 (SN12C renal): > 23.6 µM; TGI (SN12C renal): > 25 µM; GI50 (SNB-19 CNS): > 25 µM; TGI (SNB-19 CNS): > 25 µM; GI50 (SNB-75 CNS): 7.49 µM; TGI (SNB-75 CNS): > 25 µM; GI50 (SR leukemia): 8.86 µM; TGI (SR leukemia): > 25 µM; GI50 (SW-620 colon): 9.16 µM; TGI (SW-620 colon): > 25 µM; GI50 (T-47D breast): 24.9 µM; TGI (T-47D breast): > 25 µM; GI50 (TK-10 renal): > 25 µM; TGI (TK-10 renal): > 25 µM; GI50 (U251 CNS): 17.6 µM; TGI (U251 CNS): > 25 µM; GI50 (UACC-257 melanoma): 15.5 µM; TGI (UACC-257 melanoma): > 25 µM; GI50 (UACC-62 melanoma): 15 µM; TGI (UACC-62 melanoma): > 25 µM; GI50 (UO-31 renal): > 23.6 µM; TGI (UO-31 renal): > 25 µM
